Experimental data: patent publication US20220202827A1, “Enhancement of Melanocyte Migration Using ROCK Inhibitors” (The General Hospital Corporation, priority 2019, published 2022)

Key:
Assay type in all cases: cell-based, human
primary melanocytes = test: Yield of primary melanocytes from dissociated epidermis cultured in TIVA ± Y-27632
Procedure: Foreskin tissues were trimmed to remove the fat layer and then incubated with Dispase solution (2.5 mg/ml in PBS, overnight at 4° C.). On the second day, the epidermis was peeled from the dermis with fine forceps and chopped into small pieces, incubated with 0.05% trypsin for 15-30 min, neutralized with 10% FBS in DMEM, filtered ([…], Millipore), centrifuged, and rinsed with PBS. In the conventional method of melanocyte isolation, the epidermal cells were plated into culture vessels with melanocyte culture medium TIVA (Ham's F12, Mediatech, Inc., Herndon, Va., USA; 10% fetal bovine serum; 1× penicillin/streptomycin/glutamine, Invitrogen, Carlsbad, Calif., USA; 1×10^−4 M 3-isobutyl-1-methyl xanthine (IBMX), Sigma, St Louis, Mo., USA; 50 ng/ml 12-O-tetradecanoyl phorbol-13-acetate (TPA), Sigma; 2 μM Na3VO4; 1×10^−3 M N^6,2′-O-dibutyryladenosine 3′,5′-cyclic monophosphate (dbcAMP), Sigma) (Halaban et al., 2000; Yokoyama et al., 2008). The culture medium was changed once every 2 days until confluency was reached. For the new method, the isolated melanocytes were seeded with TIVA medium plus 10 μM Y-27632 (Y0503, Sigma) for two days, then the culture medium was replaced with standard TIVA without Y-27632 every 2 days, as in the conventional method. […] For isolation of keratinocytes, the dissociated epidermal cells were seeded with keratinocyte culture medium (K-SFM, Gibco/Thermo Fisher Scientific, Waltham, Mass., USA) into culture dishes pretreated with coating matrix containing type-I collagen (Gibco, R-011-K) and the medium was changed every 2 days. In order to understand the role of Y-27632 in promoting melanocyte growth, different media were used in different experiments depending on the experimental needs; information about the medium and protocol used for each experiment is listed in the following table.
To test whether Y-27632 can enhance the yield of primary melanocytes, dissociated cells isolated from epidermis were plated with melanocyte culture medium (TWA) containing 10 μM Y-27632 and incubated for 48 h, and then the medium was replaced with TIVA without Y-27632. […] The differences were significant at 5 or more days after plating, and at 16 days, about 5 times more melanocytes were recovered from Y-27632-treated cultures compared with untreated cultures. We further tested whether longer treatment with Y-27632 had the same effect.

passage 3 melanocytes [1] = test: Melanocyte proliferation in co-culture with keratinocytes in TIVA medium (cell counting); conditions: 24 h and 48 h
Procedure: (§1) FIGS. 1A-C. Keratinocytes that survive culture in TWA medium with Y-27632 can enhance melanocyte growth through a paracrine signaling pathway. A. Equal numbers of pure passage 3 melanocytes were plated with TWA medium in 4 groups with addition(s) as indicated: 1) Y-27632 (10 μM) alone (Y in graph), 2) passage 3 keratinocytes alone (K), 3) keratinocytes and Y-27632 (10 μM) (K+Y), and 4) no addition (negative control, con). Relative fold changes in melanocyte proliferation compared to the negative control were determined by counting the number of melanocytes at 24 h and 48 h after plating. B. Conditioned TWA media were obtained from the 4 groups of passage 3 melanocyte cultures in (A) at 48 h after plating. Then, equal numbers of passage 3 melanocytes were plated in 4 groups, each with one of the conditioned medium. Relative fold changes in melanocyte proliferation compared to the negative control were determined by counting the number of melanocytes at 24 h and 48 h after plating. C. […]
(§2) Therefore, we hypothesized that the surviving keratinocytes in TIVA medium with Y-27632 can promote proliferation of melanocytes by secreting growth factors into the medium. […] To identify potential growth factors, quantitative RT-PCR analysis was performed for expression of six factors that have been reported to be secreted by cultured human keratinocytes and could enhance melanocyte growth.

passage 3 melanocytes [2] = test: Melanocyte proliferation in conditioned TIVA media (cell counting)
Procedure: as §1, §2

SCF (KITLG) = test: qRT-PCR analysis of SCF mRNA expression in keratinocytes
Procedure: as §1, with “B. Conditioned TWA media were obtained from the 4 groups of passage 3 melanocyte cultures in (A) at 48 h after plating. Then, equal numbers of passage 3 melanocytes were plated in 4 groups, each with one of the conditioned medium.” left out, “plating.” for “plating. C.”
FIGS. 2A-E. Y-27632 can increase SCF expression in keratinocytes, which can promote melanocyte growth. […] Relative fold changes in melanocyte proliferation compared to the control medium were determined by counting the numbers of melanocytes. *p<0.05, **p<0.01 compared with the control; #p<0.05 comparing the SCF-treated group with the IgG-treated group.
Total RNA was extracted from cells using a QIAGEN RNeasy Plus Mini Kit (QIAGEN, Hilden, Germany) according to manufacturer's instructions. […] Data were acquired and analyzed with 7500 Fast System SDS software (Life Tedmologies, Grand Island, N.Y., USA). […]

SCF = test: Western blot analysis of SCF protein expression in keratinocytes; conditions: K-SFM with or without Y-27632 for 24, 48 or 72 h
Procedure: FIGS. 2A-E. Y-27632 can increase SCF expression in keratinocytes, which can promote melanocyte growth. A. RT-PCR analysis of SCF mRNA expression in passage 3 keratinocytes grown in K-SFM with (Y) or without (con) Y-27632 for the indicated times. **p<0.01 comparing Y-treated with the corresponding control group. B. Western blot analysis of SCF protein expression with or without Y-27632 for 24, 48 or 72 h. C. RT-PCR analysis of SCF mRNA expression in keratinocytes grown in K-SFM with increasing concentrations of Y-27632 for 48 h. **p<0.01, ***p<0.005 comparing Y-27632-treated with untreated cells (0). D. gRT-PCR analysis of SCF mRNA expression in keratinocytes grown in K-SFM, 72 h after transfection of ROCK1 and ROCK2 siRNAs individually and together. **p<0.01 when compared with the control cells transfected with scramble siRNA (siCtrl). […] Relative fold changes in melanocyte proliferation compared to the control medium were determined by counting the numbers of melanocytes. *p<0.05, **p<0.01 compared with the control; #p<0.05 comparing the SCF-treated group with the IgG-treated group.
To test whether Y-27632 can enhance expression of SCF in keratinocytes, we cultured keratinocytes in the keratinocyte culture condition (K-SFM) with or without Y-27632 and measured SCF expression.

passage 3 melanocytes [3] = test: Melanocyte proliferation in conditioned K-SFM media from keratinocytes ± Y-27632, ± SCF antibody; conditions: K-SFM conditioned 48 h by keratinocytes with Y-27632; melanocytes cultured 48 h
Procedure: FIGS. 2A-E. Y-27632 can increase SCF expression in keratinocytes, which can promote melanocyte growth. A. RT-PCR analysis of SCF mRNA expression in passage 3 keratinocytes grown in K-SFM with (Y) or without (con) Y-27632 for the indicated times. **p<0.01 comparing Y-treated with the corresponding control group. B. Western blot analysis of SCF protein expression with or without Y-27632 for 24, 48 or 72 h. C. RT-PCR analysis of SCF mRNA expression in keratinocytes grown in K-SFM with increasing concentrations of Y-27632 for 48 h. **p<0.01, ***p<0.005 comparing Y-27632-treated with untreated cells (0). D. gRT-PCR analysis of SCF mRNA expression in keratinocytes grown in K-SFM, 72 h after transfection of ROCK1 and ROCK2 siRNAs individually and together. **p<0.01 when compared with the control cells transfected with scramble siRNA (siCtrl). E. Passage 3 keratinocytes were cultured in K-SFM with or without 1′-27632 for 48 h, and then the conditioned media were collected. […] Relative fold changes in melanocyte proliferation compared to the control medium were determined by counting the numbers of melanocytes. *p<0.05, **p<0.01 compared with the control; #p<0.05 comparing the SCF-treated group with the IgG-treated group. […]

melanocytes = test: Transwell migration assay of melanocytes
Procedure: A. Representative images of migrated melanocytes (dark grey) in the transwell migration assay with different conditions as indicated. […] C. The transwell migration assay was performed under the indicated conditions. ROCKi: Rock inhibitor Y-27632 (10 μM), SIKi: SIK inhibitors with different concentrations as indicated.
To test the effect of Y-27632 on melanocyte cell migration, 1×10^5 cells were cultured in the upper chamber of a transwell migration apparatus. The lower chamber was supplemented either with 254 (melanocyte culture medium) without FBS (control) or 254 media plus seeding human keratinocytes (HKC) in the bottom or 254 medium with […] Y-27632 plus seeding keratinocytes in the bottom (Y-27632+HKC) or 254 medium in the presence of 1% FBS. The chambers were incubated for 24 hours at 37° C. After removal of non-migrated cells on top of the filter, cells that had migrated through the membrane were fixed in 4% paraformaldehyde washed and then stained with 0.1% crystal violet (FIG. 3A). The number of cells that had migrated through the membrane was counted in six randomly selected high-power microscopic fields and the average number of cells were shown in FIG. 3B. […]

Question: For `C[C@@H](N)[C@H]1CC[C@H](C(=O)Nc2ccncc2)CC1.Cl.Cl` [Y-27632, (+)-(R)-trans-4-(1-aminoethyl)-N-(4-pyridyl)cyclohexanecarboxamide dihydrochloride], which “melanocytes recovered compared with untreated cultures” value (primary melanocytes; 10 μM Y-27632 for first 48 h, at 16 days) is on record?
Answer: The value was “about 5 times”.

Question: And the “duration of treatment generating the highest yield of melanocytes” value (primary melanocytes; continuous treatment with Y-27632, incubation until Day 12)?
Answer: Its value is 4 days.

Question: And the “yield of melanocytes relative to the untreated group” value (primary melanocytes; continuous treatment with Y-27632 for up to 12 days)?
Answer: Its value is “increased the yield of melanocytes relative to the untreated group”.

Question: What about the “melanocytes observed in treated versus untreated cultures” value (primary melanocytes; dissociated epidermal cells, TIVA with 10 μM Y-27632 for 48 h, then TIVA alone, differences significant at 5 or more days after plating) of the same molecule?
Answer: Its value is “more melanocytes in cultures treated with Y-27632 than in cultures without Y-27632”.

Question: And the growth of melanocytes (passage 3 melanocytes [1]; Y-27632 (10 μM) alone, no keratinocytes)?
Answer: Its growth of melanocytes is “neither Y-27632 alone nor keratinocytes medium alone could promote the growth of melanocytes”.

Question: And the melanocyte proliferation (passage 3 melanocytes [1]; keratinocytes and Y-27632 (10 μM) (K+Y))?
Answer: The melanocyte proliferation was “could significantly increase melanocyte proliferation”.

Question: What about the melanocyte proliferation (passage 3 melanocytes [2]; conditioned medium from cultures of keratinocytes in TIVA+Y-27632) of the same molecule?
Answer: Its melanocyte proliferation is “significantly enhanced melanocyte proliferation”.

Question: And the melanocyte proliferation (passage 3 melanocytes [2]; conditioned medium from cultures of melanocytes with TIVA and Y-27632 alone)?
Answer: Its melanocyte proliferation is “did not increase melanocyte proliferation”.

Question: What about the “SCF mRNA level in keratinocytes” value (SCF (KITLG); passage 3 keratinocytes in K-SFM with or without Y-27632) of the same molecule?
Answer: Its value is “can increase both mRNA and protein levels of SCF”.

Question: What about the “expression of six melanocyte growth-enhancing factors (RT-PCR)” value (SCF (KITLG); passage 3 keratinocytes in TIVA+Y-27632, 0-48 h) of the same molecule?
Answer: Its value is “only SCF (KITLG) expression increased significantly”.

Question: What about the “SCF protein level in keratinocytes” value (SCF) of the same molecule?
Answer: Its value is “can increase both mRNA and protein levels of SCF”.

Question: And the “melanocyte growth with conditioned medium” value (passage 3 melanocytes [3])?
Answer: The value was “enhancement of melanocyte growth”.

Question: What about the melanocyte migration (melanocytes; ROCKi (10 uM Y-27632), SIKi at different concentrations, alone or combined (FIG. 3C)) of the same molecule?
Answer: Its melanocyte migration is “could enhances melanocyte migration”.

Question: And the “migration of melanocytes through the membrane” value (melanocytes; lower chamber: 254 medium with 10 μM Y-27632 plus keratinocytes (HKC), 24 hours)?
Answer: The value was “significantly induced the migration of melanocytes”.
